Test system: human platelet aggregation
Assay: Inhibitory effect on human platelet aggregation (collagen-induced, PRP, absorbance at 660 nm)
Assay type: cell-based
Conditions: concentration of collagen 2 µg/ml, 37 °C, read-out: percent inhibition of platelet aggregation (%); for inhibition at 10 µM: test drug 10 µM; for inhibition at 100 µM: test drug 100 µM
Procedure: Inhibitory effect on human platelet aggregation
Using a syringe filled with 2.5 ml of sodium citrate solution (Citrate for erythrocyte sedimentation test (Kokusai) distributed by Green Cross Corporation) beforehand, human blood was collected in a total quantity of 25 ml and stirred well. The blood was then centrifuged at 200× g for 10 minutes and the supernatant was recovered as a PRP (platelet-rich plasma).
Horse tendon collagen [HORMON-CHEMIE MÜNCHEN GMBH, collagen reagent (Holm)] was previously diluted to 10 and 20 µg /ml with the accompanying buffer.
Each test drug was diluted with PBS and its concentration (mM) was estimated from ultraviolet absorption.
The assay for platelet aggregation was carried out with NKK HEMA TRACER 1 (Nikko Bioscience). The cell was filled with 0.2 ml of PRP and 0.025 ml of the test drug solution and the absorbance was measured at a constant temperature of 37 °C. Then, 0.025 ml of the above collagen solution was added and the absorbance was measured (wavelength 660 nm). The percent inhibition of platelet aggregation (%) was calculated by means of the following equation. [formula] [ ] represents the absorbance.

Row | Structure (SMILES) | inhibition at 10 µM | inhibition at 100 µM
1 | Nc1nc2c(nc(Br)n2[C@@H]2O[C@@H]3COP(=O)(O)O[C@H]3[C@H]2O)c(=O)[nH]1 [Example 8-Br-c-GMP, 8-bromocyclic GMP] | 2.9% | 49%
2 | Nc1nc2c(ncn2[C@@H]2O[C@@H]3COP(=O)(O)O[C@H]3[C@H]2O)c(=O)[nH]1 [c-GMP, cyclic GMP] | 4% | 23%

Source: patent publication EP0533926A1, “[…]” (NIPPON SHINYAKU COMPANY, LIMITED, priority 1990, dated 1991)
